Key:
CD73 = molecular target: T1, CD73 (Homo sapiens, UniProt P21589); assay: In vitro enzymatic activity against CD73 (malachite green test using soluble CD73); type: biochemical; details: soluble CD73 36 ng/mL, 50 μM AMP, 30 minutes at 25° C.
T1 construct: purchased R&D systems 5795-EN-010
T1 sequence (P21589 27-547 limits assumed): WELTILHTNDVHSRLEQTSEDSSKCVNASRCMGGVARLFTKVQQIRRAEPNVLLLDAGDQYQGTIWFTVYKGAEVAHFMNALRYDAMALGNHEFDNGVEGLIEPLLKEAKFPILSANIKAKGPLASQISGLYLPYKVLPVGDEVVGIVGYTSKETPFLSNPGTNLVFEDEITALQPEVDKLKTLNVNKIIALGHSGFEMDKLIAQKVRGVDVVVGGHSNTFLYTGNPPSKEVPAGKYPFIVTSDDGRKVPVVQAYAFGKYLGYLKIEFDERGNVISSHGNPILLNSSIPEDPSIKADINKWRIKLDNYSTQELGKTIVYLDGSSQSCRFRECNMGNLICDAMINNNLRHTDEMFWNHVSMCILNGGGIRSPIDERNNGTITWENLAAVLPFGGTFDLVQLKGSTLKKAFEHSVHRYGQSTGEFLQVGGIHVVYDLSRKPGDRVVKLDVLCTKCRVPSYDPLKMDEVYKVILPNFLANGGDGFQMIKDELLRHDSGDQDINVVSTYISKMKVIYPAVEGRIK
Description: The malachite green test using soluble CD73, which is synthesized in vitro was used in the present invention to determine the characteristics of inhibitory activity of the compounds against CD73. The specific experimental procedures were as following:
1. The enzyme reaction in this experiment was carried out in 384-well plates, and CD73 (R&D systems #5795-EN-010) at a concentration of 36 ng/mL, the compounds at different concentrations and 50 μM AMP were incubated for 30 minutes at 25° C. in a 40 uL reaction system (consisting of 25 mM Tris pH 7.5, 5 mM MgCl2, and 0.005% Tween-20);
2. Then, 10 μL of malachite green solution (Sigma) was added to each well to terminate the reaction;
3. The concentration of resulting inorganic phosphate was determined according to the instructions of the reagent manufacturer;
4. The enzymatic activity of CD73 was calculated based on the concentration of the product, and then IC50 values were determined by non-linear regression analysis of the inhibition percentage of the compounds of the present invention at different concentrations.

[1] = molecular target: T2, CD73 enzymatic activity expressed on the cell surface of MDA-MB-231 cells (Homo sapiens, UniProt P21589); assay: Inhibition of CD73 enzymatic activity on the cell surface (Cell Titer Glo (CTG) experiment), MDA-MB-231 cells; type: cell-based; details: MDA-MB-231 cells endogenously expressing CD73, AMP, 37° C. for 2 hours, CTG readout; read-out: Cellular activity IC50
T2 construct: Human breast cancer cells MDA-MB-231 that endogenously express CD73 were used; host or cells: MDA-MB-231
T2 sequence (P21589 27-549): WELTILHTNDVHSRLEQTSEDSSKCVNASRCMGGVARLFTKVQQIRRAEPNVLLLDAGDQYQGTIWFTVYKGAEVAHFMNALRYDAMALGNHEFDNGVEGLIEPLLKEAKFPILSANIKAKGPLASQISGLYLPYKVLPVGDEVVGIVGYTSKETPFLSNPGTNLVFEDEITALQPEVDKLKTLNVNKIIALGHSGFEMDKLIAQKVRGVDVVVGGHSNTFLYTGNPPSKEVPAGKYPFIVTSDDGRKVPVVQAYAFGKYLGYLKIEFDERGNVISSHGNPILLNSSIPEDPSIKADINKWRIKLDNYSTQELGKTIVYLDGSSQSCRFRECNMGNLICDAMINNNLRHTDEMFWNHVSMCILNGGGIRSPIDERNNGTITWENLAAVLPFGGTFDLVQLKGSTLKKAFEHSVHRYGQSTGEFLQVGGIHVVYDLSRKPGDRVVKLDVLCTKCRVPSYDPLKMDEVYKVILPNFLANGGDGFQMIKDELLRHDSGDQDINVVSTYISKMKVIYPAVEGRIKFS
Description: Human breast cancer cells MDA-MB-231 that endogenously express CD73 were used in the present invention to evaluate the inhibition of the compound against the CD73 enzymatic activity expressed on the cell surface. The cells used were from the Cell Bank of the Chinese Academy of Sciences. The specific experimental procedures were as follows:
1. Before the test, MDA-MB231 cells were seeded to a 96-well plate at 20000 cells/well;
2. In RPMI1640, 10% fetal bovine serum (Gibco, 10099-141), placed in a 5% CO2 incubator at 37° C. overnight (the cells were washed three times by using a serum-free RPMI medium right before the test):
3. 50 μl of serum-free media containing the compounds at different concentrations were added to the cells and incubated for 15 minutes;
4. 25 μL of 1.2 mM AMP was added for incubation at 37° C. for 2 hours, 25 μL of supernatant was then collected from the cells and mix with 25 μL of 100 μM ATP, and then the concentration of AMP in the samples was determined by CTG (Promega, #G7573);
5. Then, a reduction ratio of the substrate AMP level in the cell culture supernatant collected after the reaction was quantitatively determined to evaluate the inhibitory effects of the examples of the present invention and the positive compounds against the CD73 enzymatic activity on the cell surface;
6. Finally, the concentration of the compound leading to half maximal inhibition of enzymatic activity (IC50) was determined using a four-parameter non-linear logistic model curve fit in Graphpad Prism.

`O=P(O)(O)CP(=O)(O)OC[C@H]1O[C@@H](n2ncc3c(N[C@@H]4CCc5cc(Cl)ccc54)cc(Cl)nc32)[C@H](O)[C@@H]1O` [Example 18, (((((2R,3S,4R,5R)-5-(6-chloro-4-(((R)-5-chloro-2,3-dihydro-1H-inden-1-yl)amino)-1H-pyrazolo[3,4-b]pyridin-1-yl)-3,4-dihydroxytetrahydrofuran-2-yl)methoxy)(hydroxy)phosphoryl)methyl)phosphonic acid] gave an IC50 (CD73) of 1.67 nM and an IC50 [1] of 0.24 nM.
In the case of `O=P(O)(O)CP(=O)(O)OC[C@H]1C[C@@H](c2ccc3c(N[C@@H]4CCc5cc(Cl)ccc54)nc(Cl)nn23)[C@H](O)[C@@H]1O` [Example 38, (((((1R,2R,3S,4S)-4-(2-chloro-4-(((R)-5-chloro-2,3-dihydro-1H-inden-1-yl)amino)pyrrolo[2,1-f][1,2,4]triazin-7-yl)-2,3-dihydroxycyclopentyl)methoxy)(hydroxy)phosphoryl)methyl)phosphonic acid], the IC50 (CD73) is reported as 7.8 nM and the IC50 [1] is reported as 0.266 nM.
`Cc1cc(N[C@@H]2CCc3cc(F)ccc32)c2cnn([C@@H]3O[C@H](COP(=O)(O)CP(=O)(O)O)[C@@H](O)[C@H]3O)c2n1` [Example 24, (((((2R,3S,4R,5R)-5-(4-(((R)-5-fluoro-2,3-dihydro-1H-inden-1-yl)amino)-6-methyl-1H-pyrazolo[3,4-b]pyridin-1-yl)-3,4-dihydroxytetrhydrofuran-2-yl)methoxy)(hydroxy)phosphoryl)methyl)phosphonic acid] showed an IC50 (CD73) of 1.26 nM and an IC50 [1] of 0.256 nM.
In the case of `O=P(O)(O)CP(=O)(O)OC[C@H]1C[C@@H](c2ccc3c(N[C@@H]4CCc5cc(F)ccc54)nc(Cl)nn23)[C@H](O)[C@@H]1O` [Example 28, (((((1R,2R,3S,4S)-4-(2-chloro-4-(((R)-5-fluoro-2,3-dihydro-1H-inden-1-yl)amino)pyrrolo[2,1-f][1,2,4]triazin-7-yl)-2,3-dihydroxycyclopentyl)methoxy)(hydroxy)phosphoryl)methyl)phosphonic acid], the IC50 (CD73) is reported as 3.95 nM and the IC50 [1] is reported as 0.252 nM.
`C[C@H](Nc1cc(Cl)nc2c1cnn2[C@@H]1O[C@H](COP(=O)(O)CP(=O)(O)O)[C@@H](O)[C@H]1O)c1ccc(S(F)(F)(F)(F)F)cc1` [Example 6, (((((2R,3S,4R,5R)-5-(6-chloro-4-(((S)-1-(4-(pentafluoro-λ^6-sulfanyl)phenyl)ethyl)amino)-1H-pyrazolo[3,4-b]pyridin-1-yl)-3,4-dihydroxytetrahydrofuran-2-yl)methoxy)(hydroxy)phosphoryl)methyl) phosphonic acid] gave an IC50 (CD73) of 2.4 nM and an IC50 [1] of 0.302 nM.
With `CN(c1cc(Cl)nc2c1cnn2[C@@H]1O[C@H](COP(=O)(O)CP(=O)(O)O)[C@@H](O)[C@H]1O)[C@@H]1CCc2ccccc21` [Example 15, (((((2R,3S,4R,5R)-5-(6-chloro-4-(((R)-2,3-dihydro-1H-inden-1-yl)(methyl)amino)-1H-pyrazolo[3,4-b]pyridin-1-yl)-3,4-dihydroxytetrahydrofuran-2-yl)methoxy)(hydroxy)phosphoryl)methyl)phosphonic acid] the IC50 (CD73) was 0.97 nM and the IC50 [1] was 0.121 nM.
Work on `O=P(O)(O)CP(=O)(O)OC[C@H]1O[C@@H](n2ncc3c(N[C@@H]4CCc5cc(F)c(F)cc54)cc(Cl)nc32)[C@H](O)[C@@H]1O` [Example 22, (((((2R,3S,4R,5R)-5-(6-chloro-4-(((R)-5,6-difluoro-2,3-dihydro-1H-inden-1-yl)amino)-1H-pyrazolo[3,4-b]pyridin-1-yl)-3,4-dihydroxytetrahydrofuran-2-yl)methoxy)(hydroxy)phosphoryl)methyl)phosphonic acid] yielded an IC50 (CD73) of 0.26 nM and an IC50 [1] of 0.151 nM.
`CN(c1cc(Cl)nc2c1cnn2[C@@H]1O[C@H](COP(=O)(O)CP(=O)(O)O)[C@@H](O)[C@H]1O)[C@H]1CCc2ccccc21` [Example 14, (((((2R,3S,4R,5R)-5-(6-chloro-4-(((S)-2,3-dihydro-1H-inden-1-yl)(methyl)amino)-1H-pyrazolo[3,4-b]pyridin-1-yl)-3,4-dihydroxytetrahydrofuran-2-yl)methoxy)(hydroxy)phosphoryl)methyl)phosphonic acid] was tested, and the IC50 (CD73) was 0.16 nM and the IC50 [1] was 0.45 nM.
Work on `O=P(O)(O)CP(=O)(O)OC[C@H]1C[C@@H](c2ccc3c(N[C@H]4CCc5ccc(C(F)(F)F)cc54)nc(Cl)nn23)[C@H](O)[C@@H]1O` [Example 35, (((((1R,2R,3S,4S)-4-(2-chloro-4-(((S)-6-(trifluoromethyl)-2,3-dihydro-1H-inden-1-yl)amino)pyrrolo[2,1-f][1,2,4]triazin-7-yl)-2,3-dihydroxycyclopentyl)methoxy)(hydroxy)phosphoryl)methyl)phosphonic acid] yielded an IC50 (CD73) of 354 nM and an IC50 [1] of 5.73 nM.
For `O=P(O)(O)CP(=O)(O)OC[C@H]1O[C@@H](n2ncc3c(N[C@@H]4CCc5cc(F)cc(F)c54)cc(Cl)nc32)[C@H](O)[C@@H]1O` [Example 21, (((((2R,3S,4R,5R)-5-(6-chloro-4-(((R)-5,7-difluoro-2,3-dihydro-1H-inden-1-yl)amino)-1H-pyrazolo[3,4-b]pyridin-1-yl)-3,4-dihydroxytetrahydrofuran-2-yl)methoxy)(hydroxy)phosphoryl)methyl)phosphonic acid], the IC50 (CD73) was 0.21 nM and the IC50 [1] was 0.21 nM.
With `O=P(O)(O)CP(=O)(O)OC[C@H]1C[C@@H](c2ccc3c(N[C@@H]4CCc5cc(C(F)(F)F)ccc54)nc(Cl)nn23)[C@H](O)[C@@H]1O` [Example 39, (((((1R,2R,3S,4S)-4-(2-chloro-4-(((R)-5-(trifluoromethyl)-2,3-dihydro-1H-inden-1-yl)amino)pyrrolo[2,1-f][1,2,4]triazin-7-yl)-2,3-dihydroxycyclopentyl)methoxy)(hydroxy)phosphoryl)methyl)phosphonic acid] the IC50 (CD73) was 63 nM and the IC50 [1] was 0.743 nM.
`O=P(O)(O)CP(=O)(O)OC[C@H]1C[C@@H](c2ccc3c(N[C@H]4CCc5ccc(F)cc54)nc(Cl)nn23)[C@H](O)[C@@H]1O` [Example 29, (((((1R,2R,3S,4S)-4-(2-chloro-4-(((S)-6-fluoro-2,3-dihydro-1H-inden-1-yl)amino)pyrrolo[2,1-f][1,2,4]triazin-7-yl)-2,3-dihydroxycyclopentyl)methoxy)(hydroxy)phosphoryl)methyl)phosphonic acid] showed an IC50 (CD73) of 15 nM and an IC50 [1] of 0.71 nM.
Compound `C[C@@H](Nc1nc(Cl)nc2c1cnn2[C@@H]1O[C@H](COP(=O)(O)CP(=O)(O)O)[C@@H](O)[C@H]1O)c1ccc(S(F)(F)(F)(F)F)cc1` [Example 1, (((((2R,3S,4R,5R)-5-(6-chloro-4-(((R)-1-(4-(pentafluoro-λ^6-sulfanyl)phenyl)ethyl)amino)-1H-pyrazolo[3,4-d]pyrimidin-1-yl)-3,4-dihydroxytetrahydrofuran-2-yl)methoxy)(hydroxy)phosphoryl)methyl)phosphonic acid] has an IC50 (CD73) of 6.8 nM and an IC50 [1] of 0.373 nM.

Reference: patent US12157755B2, “CD73 inhibitor, preparation method therefor and application thereof” (Abbisko Therapeutics Co., Ltd., priority 2019, dated 2024)
